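Briefly, cells in 96-well plates were exposed to five compound concentrations for 48 h, and endpoints were estimated by linear interpolation. GI50 marks 50% less growth.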 Active and inactive are the calls of the source. Rule as the data show it: active = GI50 up to about 1.1 µM and inactive = higher.
Legend:
Experiment in all cases: inhibition of tumour cell growth, NCI panel, 48 h
[1] = system: LXFL 529
[2] = system: XF498
[3] = system: KM-20L2
[4] = system: DMS-114
[5] = system: DMS-273
[6] = system: HOP-18
[7] = system: DLD-1
[8] = system: M19-MEL
[9] = system: RXF 631

Compound: Clc1cccc2c1OCC1C(c3ccccc3)=NN(c3ccccc3)C21 (stereo not drawn)
- GI50 [1]: 67.1 µM (inactive)
- GI50 [2]: > 100 µM (inactive)
- GI50 [3]: > 100 µM (inactive)
- GI50 [4]: 47.6 µM (inactive)
- GI50 [5]: 45.8 µM (inactive)
- GI50 [6]: 24 µM (inactive)
- GI50 [7]: > 100 µM (inactive)
- GI50 [8]: > 100 µM (inactive)
- GI50 [9]: > 100 µM (inactive)

Compound: CCCCCCCCCCCCCCCCCCCCCC(=O)Nc1ccn(C2OC(CO)C(O)C2O)c(=O)n1 (stereo not drawn)
- GI50 [1]: > 100 µM (inactive)
- GI50 [2]: > 100 µM (inactive)
- GI50 [3]: > 100 µM (inactive)
- GI50 [4]: 1.04 µM (active)
- GI50 [5]: 35.6 µM (inactive)
- GI50 [6]: > 100 µM (inactive)
- GI50 [7]: > 100 µM (inactive)
- GI50 [8]: 8.17 µM (inactive)

Compound: O=C(Cc1nc2c3c(ccc2nc1O)C(=O)c1ccccc1C3=O)C(=O)Nc1ccccc1[N+](=O)[O-]
- GI50 [1]: 4.24 µM (inactive)
- GI50 [2]: 12.6 µM (inactive)
- GI50 [3]: 19.6 µM (inactive)
- GI50 [8]: 22.2 µM (inactive)

Compound: COc1cc(C(O)C(=O)c2cnc3cc([N+](=O)[O-])ccc3n2)ccc1O (stereo not drawn)
- GI50 [1]: 74.1 µM (inactive)
- GI50 [2]: > 100 µM (inactive)
- GI50 [3]: 85.5 µM (inactive)
- GI50 [4]: 49.9 µM (inactive)
- GI50 [5]: > 100 µM (inactive)
- GI50 [7]: > 100 µM (inactive)
- GI50 [8]: > 100 µM (inactive)
- GI50 [9]: > 100 µM (inactive)

Compound: Cc1ccc(NC(=O)C(=O)CC(=O)C2CCOC2=O)c(C)c1 (stereo not drawn)
- GI50 [1]: > 100 µM (inactive)
- GI50 [2]: > 100 µM (inactive)
- GI50 [3]: > 100 µM (inactive)
- GI50 [4]: > 100 µM (inactive)
- GI50 [5]: > 100 µM (inactive)
- GI50 [6]: > 100 µM (inactive)
- GI50 [7]: > 100 µM (inactive)
- GI50 [9]: > 100 µM (inactive)

Compound: NC(=S)N1N=C2c3ccccc3CCC[C@H]2[C@@H]1c1ccccc1
- GI50 [1]: 3.89 µM (inactive)
- GI50 [2]: 4.55 µM (inactive)
- GI50 [3]: 2.01 µM (inactive)
- GI50 [4]: 3.98 µM (inactive)
- GI50 [5]: 0.721 µM (active)
- GI50 [7]: 3.42 µM (inactive)
- GI50 [8]: 2.81 µM (inactive)

Compound: COc1cc(/C=C\c2ccc(Cl)cc2)cc(OC)c1OC
- GI50 [1]: 0.292 µM (active)
- GI50 [2]: 0.274 µM (active)
- GI50 [3]: 0.105 µM (active)
- GI50 [4]: 0.394 µM (active)
- GI50 [5]: 0.149 µM (active)
- GI50 [6]: > 100 µM (inactive)
- GI50 [7]: 0.319 µM (active)
- GI50 [8]: 0.389 µM (active)
- GI50 [9]: 0.118 µM (active)

Compound: C/C(=C1/N=C(c2cc([N+](=O)[O-])ccc2Cl)N(c2ccc(Br)cc2)C1=O)c1ccc(N(CCC#N)CCC#N)cc1C
- GI50 [1]: 8.11 µM (inactive)
- GI50 [2]: 4.71 µM (inactive)
- GI50 [3]: 16.1 µM (inactive)
- GI50 [4]: 12.3 µM (inactive)
- GI50 [5]: 7.23 µM (inactive)
- GI50 [6]: 76.9 µM (inactive)
- GI50 [7]: 15.9 µM (inactive)
- GI50 [8]: 29.1 µM (inactive)
- GI50 [9]: > 100 µM (inactive)

Compound: O=c1oc2c(O)c(O)cc3c(=O)oc4c(O)c(O)cc1c4c23 [ELLAGIC ACID]
- GI50 [1]: 37 µM (inactive)
- GI50 [2]: 35.2 µM (inactive)
- GI50 [3]: 94.4 µM (inactive)
- GI50 [4]: 33.4 µM (inactive)
- GI50 [5]: > 10 µM (inactive)
- GI50 [6]: > 10 µM (inactive)
- GI50 [7]: > 10 µM (inactive)
- GI50 [8]: > 10 µM (inactive)
- GI50 [9]: > 10 µM (inactive)

Compound: NNC(=O)C(=O)N/N=C1\CCC(=O)CC1C(=O)CCC(=O)Nc1ccc(Cl)cc1 (stereo not drawn)
- GI50 [1]: > 100 µM (inactive)
- GI50 [3]: > 100 µM (inactive)
- GI50 [5]: > 100 µM (inactive)
- GI50 [6]: 95.5 µM (inactive)
- GI50 [7]: > 100 µM (inactive)
- GI50 [8]: > 100 µM (inactive)

Compound: FC(F)(F)c1cccc(C2SCc3nc4ccccc4n32)c1 (stereo not drawn)
- GI50 [1]: 27.8 µM (inactive)
- GI50 [4]: 18.5 µM (inactive)
- GI50 [5]: 41.9 µM (inactive)
- GI50 [7]: 54.2 µM (inactive)
- GI50 [8]: > 100 µM (inactive)

Compound: CCCCCC(O)(CCCCC)CCCCCCCCC1=C(O)C(=O)c2ccc(=O)[nH]c2C1=O
- GI50 [1]: 3.94 µM (inactive)
- GI50 [2]: 3.6 µM (inactive)
- GI50 [3]: 13.1 µM (inactive)
- GI50 [4]: 4.37 µM (inactive)
- GI50 [5]: 3.59 µM (inactive)
- GI50 [7]: 5.37 µM (inactive)
- GI50 [8]: 3.88 µM (inactive)
- GI50 [9]: 10.3 µM (inactive)

Compound: C=C1C2CC(OC(C)=O)C3(C)C(c4ccoc4)OC(=O)[C@@H](O)[C@]13OC1C[C@H](OC(C)=O)C(C)(C)[C@H](C(O)C(=O)OC)[C@]12C (stereo partly drawn)
- GI50 [1]: > 100 µM (inactive)
- GI50 [3]: > 100 µM (inactive)
- GI50 [4]: > 100 µM (inactive)
- GI50 [5]: > 100 µM (inactive)
- GI50 [6]: > 100 µM (inactive)
- GI50 [7]: > 100 µM (inactive)
- GI50 [8]: > 100 µM (inactive)

Compound: COC1=C(C)C(=O)C2C(C1=O)C(c1ccc(OC)c(OC)c1)[C@H]2C (stereo partly drawn)
- GI50 [1]: > 100 µM (inactive)
- GI50 [2]: > 100 µM (inactive)
- GI50 [5]: > 100 µM (inactive)
- GI50 [7]: > 100 µM (inactive)
- GI50 [8]: > 100 µM (inactive)
- GI50 [9]: > 100 µM (inactive)

Source: ChEMBL document CHEMBL1201862, “PubChem BioAssay data set” (2004)
